The test system of data set [1] is HMOX1 gene (luciferase reporter). The experiment in a line: Luciferase expression assay in HMOX1-luciferase knock-in HaCaT monoclone No. 38 (detection of compound sensitization). In kind it is cell-based. To be noted: human, HMOX1-luciferase knock-in HaCaT cells, clone No. 38, detection range of concentration 4 μM˜1000 μM, 48 h incubation, compared with negative control group, read-out: expression of luciferase (fold induction), highest reached. As to the method: 4. Analysis of sensitization of compounds after gene knock-in Sensitization of compounds was detected using clone No. 38.
Pre-cultured cells were centrifuged followed by removal of the supernatant, and were resuspended in fresh complete medium. The cell concentration was calculated with a cell counter after dilution for 10 times, and finally was adjusted to 50,000 cells/well. 200 μL of the cell solution was added to each well of a white opaque 96-well plate to ensure that the number of cells per well was substantially the same. The cell was incubated for 24 h at 37° C. in a 5% CO2 incubator. After 24 h, the medium was removed, and a working solution was prepared with 1% FBS medium. […] After 48 h, luciferase expression was measured and cell viability was detected using MTT.
• (1) 48 hours after treatment, the medium containing the reagent was discarded, and the plate was washed twice with PBS; • (2) 100 μL of PBS was added to each well, and then an equal volume of the luciferase substrate was added; • (3) The plate was shaken at 200 rpm for 2 min to fully lyse the cells; • (4) A Tecan Infinite® 200 Pro multi-function microplate reader selecting luminescence, integration 0.5s was used and the reading was recorded. […]

A further data set relates to HMOX1 gene target site. Kind of data set: T7EI digestion identification of target site cleavage by sgRNA co-transfected with hCas9 into 293T cells. In kind it is cell-based. To be noted: co-transfected with hCas9 plasmid, 72 hours, FIG. 1. The procedure:
sgRNA-1, sgRNA-10, sgRNA-13 plasmid and hCas9 plasmid were co-transfected into 293T cells respectively. After 72 hours, the genome was extracted and expanded with the primers in Table 2 on the target site, and the PCR product was identified by T7EI digestion.
The sgRNA-1, sgRNA-10, and sgRNA-13 plasmids were co-transfected into the 293T cells with a H-Cas9 plasmid (using liposome transfection), and the transfection steps were as follows: • (1) The prior medium was discarded, and 2 mL of fresh medium for incubation was added; • (2) 0.5 μg of the sgRNA recombinant plasmid and 0.5 μg of the hCas9 plasmid were dissolved in 100 μL of DMEM (H), 3 μL of a liposome transfection reagent was diluted to 100 μL, and the diluted liposome transfection reagent was added to the diluted plasmid solution. The mixture was gently blew evenly, formulated into a transfection complex, and reacted at room temperature for 15 min; • (3) The transfection complex was dropped into 6 wells, and reacted at 37° C. for 5 h. Then the reaction solution was discarded, and fresh medium was added for cultivation. Genome Extraction Process
PCR amplification of sgRNA-1, sgRNA-10, and sgRNA-13 was carried out using the extracted genome after transfection as a template; PCR amplification was performed using the wild type (WT) as a template and primers with SEQ ID NO: 6-7 as shown in Table 2. […]

Bounds are passed on as bounds.

`Sc1nc2ccccc2s1` [2-mercaptobenzothiazole]: the fold induction at 48 h in data set [1] is at most 30.

On to `OCC=Cc1ccccc1` [cinnamyl alcohol], for which the fold induction at 48 h in data set [1] is at most 21.

For the molecule “sgRNA-1: specific sgRNA near the stop codon of HMOX1 gene, sequence TTAACAGGTGGGCGTGCATCAGG, Exon 5 (expressed or natural sequence)”, the “cleavage of the target site (T7EI digestion)” value with HMOX1 gene target site is recorded as “can effectively cleave the target site”.

Turning to “sgRNA-13: specific sgRNA near the stop codon of HMOX1 gene, sequence GCTTTATGCCATGTGAATGCAGG, Exon 5 (expressed or natural sequence; the letters are possibly those of the target site)”, in the data set with HMOX1 gene target site, the “cleavage of the target site (T7EI digestion)” value is listed as “can effectively cleave the target site”.
